Measurements published in the NIST ThermoML archive (doi:10.1016/j.jct.2016.10.007).
± gives the expanded uncertainty stated by the source.

Legend:
[1] = wn = mass fraction of the nth substance listed; details: Wilhemy plate method
[2] = Wilhemy plate method

CCN(CC)CCO [(diethylamino)ethanol] + O
surface tension liquid-gas [mN/m], [1]
Details	303.2 K	313.2 K	323.2 K
w1 = 0.1	41.2 ± 0.4	39.2 ± 0.5	37.3 ± 0.5
w1 = 0.137	40.1 ± 0.6	–	–
w1 = 0.2	36.5 ± 0.3	34.7 ± 0.4	33.1 ± 0.4
w1 = 0.213	36.3 ± 0.3	–	–
w1 = 0.3	34.9 ± 0.3	33.2 ± 0.3	31.7 ± 0.3
w1 = 0.4	33.6 ± 0.3	32.1 ± 0.3	30.7 ± 0.3
w1 = 0.483	32.9 ± 0.3	–	–
w1 = 0.5	32.7 ± 0.3	31.2 ± 0.3	29.9 ± 0.3
w1 = 0.58	31.8 ± 0.3	–	–
w1 = 0.6	31.3 ± 0.4	29.8 ± 0.3	28.3 ± 0.3
w1 = 0.685	30.7 ± 0.4	–	–
w1 = 0.7	30.3 ± 0.4	28.7 ± 0.3	27.3 ± 0.3
w1 = 0.8	29.6 ± 0.3	28 ± 0.3	26.6 ± 0.3
w1 = 0.814	29.5 ± 0.3	–	–
w1 = 0.9	28.7 ± 0.3	27.3 ± 0.3	26 ± 0.3
w1 = 0.91	28.6 ± 0.3	–	–
w1 = 1	27.7 ± 0.3	26.4 ± 0.3	25.2 ± 0.3

CCN(CC)CCO [(diethylamino)ethanol]
[2]
Details	surface tension liquid-gas [mN/m]
283.2 K	29.7 ± 0.3
293.2 K	28.6 ± 0.3
303.2 K	27.7 ± 0.3
313.2 K	26.4 ± 0.3
323.2 K	25.2 ± 0.3

O [water]
Details	surface tension liquid-gas [mN/m]
[2], 298.2 K	71.9 ± 0.2
